According to US8710088B2, “Pharmaceutical and diagnostic compositions for use in the treatment and diagnosis of neurodegenerative diseases or amyloid diseases” (Max-Delbruck-Centrum fur Molekulare Medizin, priority 2004, dated 2014):

Key:
[1] = tested on: huntingtin-Exon-1 with 103 glutamines (Htt103Q-EGFP); assay: stably transfected PC12 cell line with inducible Htt103Q-EGFP, membrane filter test; assay type: cell-based; details: muristerone induced, 44 h, membrane filter method
Description: The compounds were additionally tested in a stably transfected PC12 cell line. This cell line was transfected with an ecdysone-inducible plasmid whose N-terminal codes for huntingtin-Exon-1 marked with GFP with 103 glutamines (Htt103Q-EGFP). The Htt103Q-EGFP expression was induced with muristerone and the cells were subsequently cultivated for 44 h in the presence of solvents or the chemical agents. Subsequently, the amount of aggregate was determined with the help of the membrane filter test as described by Heiser et al. (2002). Furthermore, the amount of aggregate was determined with the help of a fluorescence measurement (data not shown). […] The latter could be deduced from the total amount of protein in the cell lysate (FIG. 2B) which was determined with the help of cell extracts.

wild type Aβ1-42 = biological target: T1, wild type Aβ1-42 (Homo sapiens, UniProt P05067); assay: aggregation assay with wild type Aβ1-42, membrane filter method; assay type: biochemical; details: peptide 15 μM, pH 7.4, 42 h, 37° C.
T1 construct: non-mutated (wild type) Aβ1-42
Description: Analogously, the compounds were also examined in aggregation assays with the amyloid β-peptide Aβ1-42(E22Q), which is a particularly rapidly aggregating variant of amyloid β, as well as with non-mutated (wild type) Aβ1-42. For this purpose, the peptide was incubated at a concentration of 15 μM in a phosphate buffer with a physiological pH value of 7.4 for 42 h at 37° C. and subsequently, aliquots were examined by means of the membrane filter method (Figure) or electron microscopy (Figures) as well. […] Cell viability measurements were carried out in neuronally differentiated PC12 cells to which beta-amyloid and the substances to be tested were added extracellularly in order to examine whether the compounds are able to reduce toxicity caused by amyloid-beta. After 48 h the viability of the cells (approximately corresponds to the number of vital cells) was measured.

amyloid-beta fibrils = amyloid-beta fibrils (Homo sapiens, UniProt P05067); assay: binding to amyloid-beta aggregates located on a cellulose acetate membrane; details: colored substances
Text: FIG. 16: Binding to amyloid-beta aggregates located on a cellulose acetate membrane

huntingtin = biological target: T2, huntingtin (Homo sapiens, UniProt P42858, INS38QQQQQQQQQQQQQQQQQQQQQQQQQQQQQQ); assay: cell culture model of Huntington's chorea: COS1 cells transfected with pTL1-CAG51, membrane filter test; assay type: cell-based; details: 40-44 h, membrane filter method
T2 construct: expressed in transfected cells; host or cells: COS1 cells, transient transfection
Description: The compounds were then tested in several cell culture models of polyglutamine diseases, inter alia Huntington's chorea. For this purpose, COS1 cells were transiently transfected with the plasmid pTL1-CAG51 already described above (Sittler, A., Walter, S., Wedemeyer, N., Hasenbank, R., Scherzinger, E., Eickhoff, H., Bates, G. P., Lehrach, H. and Wanker, E. E. (1998) Mol Cell 2, 427-36) and cultivated for 44 h in the presence of solvents or the chemical agents. Subsequently, the amount of aggregate was determined with the help of the membrane filter test as described by Heiser et al. (2002). […] The latter could be deduced from the total amount of protein in the cell lysate (FIG. 2B) which was determined with the help of cell extracts.
7-Amino-8-(2,4-dihydroxy-6-methyl-phenyl)-1,9-dimethyl-phenoxazine-3-one was then tested in a cell culture model of Huntington's chorea. For this purpose, COS1 cells were transiently transfected with the plasmid pTL1-CAG51 already described above (Sittler, A., Walter, S., Wedemeyer, N., Hasenbank, R., Scherzinger, E., Eickhoff, H., Bates, G. P., Lehrach, H. and Wanker, E. E. (1998) Mol Cell 2, 427-36) and cultivated for 40-44 h in the presence of solvents or 7-amino-8-(2,4-dihydroxy-6-methyl-phenyl)-1,9-dimethyl-phenoxazine-3-one. Subsequently, the amount of aggregate was determined with the help of the membrane filter test as described by Heiser et al. (2002). […] The latter could be deduced from the total amount of protein (FIG. 2B) which was determined with the help of cell extracts.

alpha-synuclein = alpha-synuclein amyloid fibril formation, electron microscopy; assay type: biochemical; details: wild type protein or mutant (A53T)
Text: For this purpose, the wild type protein or a mutant (A53T) was used.

[2] = biological target: T3, mutant huntingtin (GST fusion protein GST-HDQ51) (Homo sapiens, UniProt P42858, INS38QQQQQQQQQQQQQQQQQQQQQQQQQQQQQQ); assay: in vitro aggregation of mutant huntingtin, membrane filter test; assay type: biochemical; details: membrane filter method
T3 construct: GST (N)
Description: As in the tests described by Heiser et al. (2002), the protein was used for aggregation tests to which either only solvent or solvent and the chemical agent in question was added. Aliquots of these batches were examined by means of the membrane filter test and electron microscopy.
As in the tests described by Heiser et al. (2002), the protein was used for aggregation tests to which either only solvent or solvent and 7-amino-8-(2,4-dihydroxy-6-methyl-phenyl)-1,9-dimethyl-phenoxazine-3-one was added. Aliquots of these batches were examined by means of the membrane filter test (FIG. 1B) and electron microscopy (FIGS. 1E and 1F).

T2 sequence (P42858 with tags, fused parts or gaps with the stated changes limits assumed): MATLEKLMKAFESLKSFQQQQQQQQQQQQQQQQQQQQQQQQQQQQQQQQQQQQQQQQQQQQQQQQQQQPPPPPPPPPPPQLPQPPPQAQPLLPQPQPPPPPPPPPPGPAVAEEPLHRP
Chain of amyloid-beta fibrils (P05067 672-713 limits assumed): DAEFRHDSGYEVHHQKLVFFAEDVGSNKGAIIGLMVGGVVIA
T1 sequence (P05067 672-713 limits assumed): as above
T3 sequence (P42858 with tags, fused parts or gaps with the stated changes limits assumed): as the sequence (P42858 with tags, fused parts or gaps with the stated changes limits assumed) above

## CN(C)CCCN(C=O)c1nc2c(ccc3[nH]c(=O)c(C#N)cc32)s1 [N-(8-Cyano-7-oxo-6,7-dihydro-thiazolo[4,5-f]quinoline-2-yl)-N-(3-dimethylamino-propyl)-formamide]
[1]
  Inhibition of the aggregation of huntingtin (Exon-1) in mammalian cells: Inhibition of the aggregation

## COC(=O)C1CC2=C(Cc3ccccc32)CN1c1ccco1 (centres unmarked) [2-Furan-2-yl-2,3,4,9-tetrahydro-1H-indenol[2,3-c]pyridine-3-carboxylic acid methyl ester]
Wild type Aβ1-42
  Inhibition of the aggregation of wild type Aβ1-42 (SDS-insoluble aggregates): Inhibition of the aggregation

## Cc1cc(O)cc(O)c1-c1c(N)cc2oc3cc(=O)c(-c4c(C)cc(O)cc4O)c(C)c-3nc2c1C [beta-amino-orcein]
amyloid-beta fibrils
  direct binding to amyloid-beta fibrils: bind directly to amyloid-beta fibrils
huntingtin
  Inhibition of the aggregation of huntingtin in mammalian cells: Inhibition of the aggregation

## CN(C)CCN(Cc1ccccc1)c1nc2c(ccc3[nH]c(=O)c(C#N)cc32)s1 [2-[Benzyl-(2-dimethylamino-ethyl)-amino]7-oxo-6,7-dihydro-thiazolo[4,5-f]quinoline-8-carbonitrile]
[1]
  Inhibition of the aggregation of huntingtin (Exon-1) in mammalian cells: Inhibition of the aggregation

## C1=CC2=Nc3ccccc3OC2=CC1 [3H-phenoxazine, 3H-Phenoxazine]
huntingtin
  Inhibition of the aggregation of huntingtin in mammalian cells: Inhibition of the aggregation

## c1cncc(C2=Nc3cccc4cccc(c34)N2)c1 [2-pyridine-3-yl-1H-perimidine]
Wild type Aβ1-42
  Inhibition of the aggregation of wild type Aβ1-42 (SDS-insoluble aggregates): Inhibition of the aggregation

## alpha-amino-orceimine
amyloid-beta fibrils
  direct binding to amyloid-beta fibrils: bind directly to amyloid-beta fibrils

## CN(C)CCN(C=O)c1nc2c(ccc3[nH]c(=O)c(C#N)cc32)s1 [N-(8-Cyano-7-oxo-6,7-dihydro-thiazolo[4,5-f]quinoline-2-yl)-N-(2-dimethylamino-ethyl-formamide]
[1]
  Inhibition of the aggregation of huntingtin (Exon-1) in mammalian cells: Inhibition of the aggregation

## S=C1Nc2cccc3cccc(c23)N1 [1H,3H-perimidine-2-thione]
Wild type Aβ1-42
  Inhibition of the aggregation of wild type Aβ1-42 (SDS-insoluble aggregates): Inhibition of the aggregation

## N#Cc1ccc(C2=Nc3cccc4cccc(c34)N2)cc1 [4-(1H-perimidine-2-yl)-benzonitrile]
Wild type Aβ1-42
  Inhibition of the aggregation of wild type Aβ1-42 (SDS-insoluble aggregates): Inhibition of the aggregation

## Cc1cc(=O)cc2oc3cccc(C)c3nc1-2 [1,9-dimethyl-phenoxazine-3-one]
Wild type Aβ1-42
  Inhibition of the aggregation of wild type Aβ1-42 (SDS-insoluble aggregates): Inhibition of the aggregation

## CCN(CC)CCN(CC)c1nc2c(ccc3[nH]c(=O)c(C#N)cc32)s1 [2-[(2-diethylamino-ethyl)-ethyl-amino]-7-oxo-6,7-dihydro-thiazolo[4,5-f]quinoline-8-carbonitrile]
[1]
  Inhibition of the aggregation of huntingtin (Exon-1) in mammalian cells: Inhibition of the aggregation

## Cc1cc(O)cc(O)c1-c1c(O)cc2oc3cc(=O)c(-c4c(C)cc(O)cc4O)c(C)c-3nc2c1C [beta-hydroxy-orcein]
amyloid-beta fibrils
  direct binding to amyloid-beta fibrils: bind directly to amyloid-beta fibrils
Wild type Aβ1-42
  Inhibition of the aggregation of wild type Aβ1-42 (SDS-insoluble aggregates): Inhibition of the aggregation

## O=c1ccc2nc3ccccc3oc-2c1 [phenoxazin-3-one]
huntingtin
  Inhibition of the aggregation of huntingtin in mammalian cells: Inhibition of the aggregation

## O=C(O[C@@H]1Cc2c(O)cc(O)cc2O[C@H]1c1cc(O)c(O)c(O)c1)c1cc(O)c(O)c(O)c1 [GCG, (−)-Gallocatechin gallate]
alpha-synuclein
  Inhibition of the aggregation of alpha-synuclein (amyloid fibrils): Inhibition of the aggregation

## Cc1cc(O)cc(O)c1-c1c(N)cc2oc3cc(=N)c(-c4c(C)cc(O)cc4O)c(C)c-3nc2c1C [beta-amino-orceimine]
amyloid-beta fibrils
  direct binding to amyloid-beta fibrils: bind directly to amyloid-beta fibrils

## CN1C(CO)=Nc2cccc3cccc1c23 [(1-methyl-1H-perimidine-2-yl)-methanol]
[2]
  Inhibition of the aggregation of huntingtin (Exon-1) (SDS-insoluble aggregates): Inhibition of the aggregation

## N#Cc1cc2c(ccc3sc(NCCN4CCCCC4)nc32)[nH]c1=O [7-Oxo-2-(2-piperidine-1-yl-ethylamino)-6,7-dihydrothiazolo[4,5-f]quinoline-8-carbonitrile]
[1]
  Inhibition of the aggregation of huntingtin (Exon-1) in mammalian cells: Inhibition of the aggregation

## Cc1ccc(C2=Nc3cccc4cccc(c34)N2)cc1 [2-p-tolyl-1H-perimidine]
Wild type Aβ1-42
  Inhibition of the aggregation of wild type Aβ1-42 (SDS-insoluble aggregates): Inhibition of the aggregation

## Cc1cc(=O)cc2oc3cc(N)cc(C)c3nc1-2 [7-amino-1,9-dimethyl-phenoxazine-3-one]
huntingtin
  Inhibition of the aggregation of huntingtin in mammalian cells: Inhibition of the aggregation

## Cc1cc(=O)cc2oc3cc(O)cc(C)c3nc1-2 [7-hydroxy-1,9-dimethyl-phenoxazine-3-one]
Wild type Aβ1-42
  Inhibition of the aggregation of wild type Aβ1-42 (SDS-insoluble aggregates): Inhibition of the aggregation

## CC(=O)N(CCN(C)C)c1nc2c(ccc3[nH]c(=O)c(C#N)cc32)s1 [N-(8-Cyano-7-oxo-6,7-dihydro-thiazolo[4,5-f]quinoline-2-yl)-N-(2-dimethylamino-ethyl)-acetamide]
[1]
  Inhibition of the aggregation of huntingtin (Exon-1) in mammalian cells: Inhibition of the aggregation

## c1cc2c3c(cccc3c1)NC(c1c[nH]cn1)=N2 [2-(1H-imidazole-4-yl)-1H-perimidine, 2-(1H-Imidazole-4-yl)-1H-perimidine]
Wild type Aβ1-42
  Inhibition of the aggregation of wild type Aβ1-42 (SDS-insoluble aggregates): Inhibition of the aggregation

## alpha-hydroxy-orcein
amyloid-beta fibrils
  direct binding to amyloid-beta fibrils: bind directly to amyloid-beta fibrils
huntingtin
  Inhibition of the aggregation of huntingtin in mammalian cells: Inhibition of the aggregation

## c1ccc2c(c1)Nc1ccccc1O2 [phenoxazine]
amyloid-beta fibrils
  direct binding to amyloid-beta fibrils: bind directly to amyloid-beta fibrils

## O=c1ccc2nc3ccccc3oc-2c1 [phenoxazone]
amyloid-beta fibrils
  direct binding to amyloid-beta fibrils: bind directly to amyloid-beta fibrils

## gamma-amino-orcein
amyloid-beta fibrils
  direct binding to amyloid-beta fibrils: bind directly to amyloid-beta fibrils

## CN(C)CCCNc1nc2c(ccc3[nH]c(=O)c(C#N)cc32)s1 [2-(3-dimethylamino-propylamino)-7-oxo-6,7-dihydro-thiazolo[4,5-f]quinoline-8-carbonitrile]
[1]
  Inhibition of the aggregation of huntingtin (Exon-1) in mammalian cells: Inhibition of the aggregation

## O=C(Nc1nccs1)c1ccc(-c2ccc(C(=O)Nc3nccs3)o2)cc1 [5-[4-(Thiazole-2-ylcarbamoyl)-phenyl]-furan-2-carboxylic acid thiazole-2-ylamide]
huntingtin
  Inhibition of the aggregation of huntingtin in mammalian cells: Inhibition of the aggregation

## CCOC(=O)C(CC(C)C)c1nc(-c2ccccc2)ns1 (centres unmarked) [4-methyl-2-(3-phenyl-[1,2,4]thiadiazole-5-yl)-pentanoic acid ethyl ester]
huntingtin
  Inhibition of the aggregation of huntingtin in mammalian cells: Inhibition of the aggregation

## N#Cc1cc2c(ccc3sc(N)nc32)[nH]c1=O [2-Amino-7-oxo-6,7-dihydro-thiazolo[4,5-f]quinoline-8-carbonitrile]
[1]
  Inhibition of the aggregation of huntingtin (Exon-1) in mammalian cells: Inhibition of the aggregation

## CC1=Nc2cccc3cccc(c23)N1C [1,2-dimethyl-1H-perimidine]
Wild type Aβ1-42
  Inhibition of the aggregation of wild type Aβ1-42 (SDS-insoluble aggregates): Inhibition of the aggregation
